Values of other authors as cited in US12454714B2, “Monbretin A (MbA) synthesis using a heterologous nucleic acid(s) encoding A MbA pathway enzyme” (The University of British Columbia, priority 2018, dated 2025).
“And” between values parts separate entries of the source, which are not always exact repeats. Equal values may be shown once. Read-outs that look alike come from different tables or passages of the source.

Legend:
[1] = target: T1, human pancreatic α-amylase (HPA) (Homo sapiens, UniProt P04746)
T1 sequence (P04746 16-511): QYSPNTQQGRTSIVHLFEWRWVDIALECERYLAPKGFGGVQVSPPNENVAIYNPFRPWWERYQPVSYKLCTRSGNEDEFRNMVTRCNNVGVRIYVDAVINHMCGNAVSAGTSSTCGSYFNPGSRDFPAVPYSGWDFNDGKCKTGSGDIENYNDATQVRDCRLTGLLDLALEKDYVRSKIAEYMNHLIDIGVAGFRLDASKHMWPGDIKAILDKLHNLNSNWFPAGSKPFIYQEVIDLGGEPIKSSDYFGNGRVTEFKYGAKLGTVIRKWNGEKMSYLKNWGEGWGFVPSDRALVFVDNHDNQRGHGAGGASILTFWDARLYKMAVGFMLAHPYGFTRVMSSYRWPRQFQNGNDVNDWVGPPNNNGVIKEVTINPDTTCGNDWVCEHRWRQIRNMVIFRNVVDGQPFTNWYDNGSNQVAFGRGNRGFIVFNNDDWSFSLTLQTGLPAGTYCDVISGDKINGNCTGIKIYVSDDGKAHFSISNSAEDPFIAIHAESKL

gut α-glucosidases = details: selectivity versus HPA
[2] = tested on: “Zucker diabetic fatty” rats

Row | HPA inhibition, in words [1] | Ki [1] | Ki ([1]; listed as Mini-MbA) | Structure (SMILES) | effect on the gut α-glucosidases (gut α-glucosidases) | blood-glucose-lowering activity [2]
1 | potent and selective inhibitors | 0.093 µM | 0.09 µM | CC1OC(Oc2c(-c3cc(O)c(O)c(O)c3)oc3cc(O)cc(O)c3c2=O)C(OC2OC(COC(=O)C=Cc3ccc(O)c(O)c3)C(O)C(O)C2O)C(O)C1O [mini-MbA, myricetin 3-O-(6′-O-caffeoyl)-β-D-glucosyl 1,2-α-L-rhamnoside] |  | 
2 | potent and selective inhibitors | 0.008 µM and 0.0081 µM |  | CC1OC(OC2COC(Oc3c(O)cc(-c4oc5cc(O)cc(O)c5c(=O)c4OC4OC(C)C(O)C(O)C4OC4OC(COC(=O)C=Cc5ccc(O)c(O)c5)C(O)C(O)C4OC4OC(CO)C(O)C(O)C4O)cc3O)C(O)C2O)C(O)C(O)C1O [MbA, myricetin 3-O-(glucosyl-6′-O-caffeoyl)-1,2-β-D-glucosyl 1,2-α-L-rhamnoside 4′-O-α-L-rhamnosyl 1,4-β-D-xyloside] | does not affect | effective blood-glucose-lowering
3 |  | 0.042 µM |  | CC1OC(Oc2c(-c3cc(O)c(O)c(O)c3)oc3cc(O)cc(O)c3c2=O)C(OC2OC(COC(=O)C=Cc3ccc(O)c(O)c3)C(O)C(O)C2OC2OC(CO)C(O)C(O)C2O)C(O)C1O [MbA-XR^2, myricetin 3-O-(glucosyl-6′-O-caffeoyl)-1,2-β-D-glucosyl 1,2-α-L-rhamnoside] |  | 
